Values quoted from earlier work in patent publication US8541386B2, “Cannabinoid 2 (CB2) receptor gene promoter and unique RNA transcripts in B cells and methods of use” (University of South Florida, priority 2009, dated 2013).

Tested on: IL-4/anti-CD40 stimulated B cells
Conditions: co-treatment of IL-4/anti-CD40 stimulated B cells; earlier work of the inventors' lab

CCCCCCC(C)(C)c1ccc([C@@H]2C[C@H](O)CC[C@H]2CCCO)c(O)c1 [CP55940]
immunoglobulin class switching to IgE: increased immunoglobulin class switching to IgE
